# Measured values taken from ChEMBL document CHEMBL1201862, “PubChem BioAssay data set” (2004).
#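 Briefly, cells in 96-well plates were exposed to five compound concentrations for 48 h, and endpoints were estimated by linear interpolation. GI50 is the concentration that inhibits growth by half.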 Active and inactive are the calls of the source. Cut-off read from the data, not from the text of the source: active = GI50 up to about 1.1 µM and inactive = higher.
# Legend:
# Experiment in all cases: DTP human tumour cell line panel, 48 h
# [1] = test system: 786-0
# [2] = test system: A498
# [3] = test system: A549
# [4] = test system: ACHN
# [5] = test system: CCRF-CEM
# [6] = test system: COLO 205
# [7] = test system: DLD-1
# [8] = test system: DMS-114
# [9] = test system: DMS-273
# [10] = test system: EKVX
# [11] = test system: HCT-116
# [12] = test system: HCT-15
# [13] = test system: HOP-18
# [14] = test system: HT-29
# [15] = test system: IGROV-1
# [16] = test system: K562
# [17] = test system: KM-20L2
# [18] = test system: KM12
# [19] = test system: LOX IMVI
# [20] = test system: LXFL 529
# [21] = test system: M19-MEL
# [22] = test system: MOLT-4
# [23] = test system: Malme-3M
# [24] = test system: NCI-H226
# [25] = test system: NCI-H23
# [26] = test system: NCI-H460
# [27] = test system: NCI-H522
# [28] = test system: OVCAR-3
# [29] = test system: OVCAR-4
# [30] = test system: OVCAR-5
# [31] = test system: OVCAR-8
# [32] = test system: RPMI-8226
# [33] = test system: RXF 393
# [34] = test system: RXF 631
# [35] = test system: SF-268
# [36] = test system: SF-295
# [37] = test system: SF-539
# [38] = test system: SK-MEL-28
# [39] = test system: SK-MEL-2
# [40] = test system: SK-MEL-5
# [41] = test system: SK-OV-3
# [42] = test system: SN12C
# [43] = test system: SNB-19
# [44] = test system: SNB-75
# [45] = test system: SNB-78
# [46] = test system: SW-620
# [47] = test system: TK-10
# [48] = test system: U-251
# [49] = test system: UACC-257
# [50] = test system: UACC-62
# [51] = test system: UO-31
# [52] = test system: XF498
# [53] = test system: CAKI-1
# [54] = test system: HCC 2998
# [55] = test system: HL-60
# [56] = test system: HOP-62
# [57] = test system: M14
smiles,measurement,setting,value
c1ccc(NCn2cnc3ccccc32)cc1,GI50,[1],> 100 µM (inactive)
same,GI50,[2],> 100 µM (inactive)
same,GI50,[3],> 100 µM (inactive)
same,GI50,[4],68.4 µM (inactive)
same,GI50,[5],37.1 µM (inactive)
same,GI50,[6],> 100 µM (inactive)
same,GI50,[7],29.2 µM (inactive)
same,GI50,[8],> 100 µM (inactive)
same,GI50,[9],> 100 µM (inactive)
same,GI50,[10],> 100 µM (inactive)
same,GI50,[11],74.1 µM (inactive)
same,GI50,[12],15.6 µM
same,GI50,[13],> 100 µM (inactive)
same,GI50,[14],36.3 µM (inactive)
same,GI50,[15],> 100 µM (inactive)
same,GI50,[16],20.8 µM (inactive)
same,GI50,[17],6.04 µM (inactive)
same,GI50,[18],> 100 µM (inactive)
same,GI50,[19],8.18 µM (inactive)
same,GI50,[20],> 100 µM (inactive)
same,GI50,[21],> 100 µM (inactive)
same,GI50,[22],> 100 µM (inactive)
same,GI50,[23],> 100 µM (inactive)
same,GI50,[24],> 100 µM (inactive)
same,GI50,[25],> 100 µM (inactive)
same,GI50,[26],> 100 µM (inactive)
same,GI50,[27],> 100 µM (inactive)
same,GI50,[28],> 100 µM (inactive)
same,GI50,[29],> 100 µM (inactive)
same,GI50,[30],> 100 µM (inactive)
same,GI50,[31],> 100 µM (inactive)
same,GI50,[32],25.9 µM (inactive)
same,GI50,[33],> 100 µM (inactive)
same,GI50,[34],> 100 µM (inactive)
same,GI50,[35],74.8 µM (inactive)
same,GI50,[36],> 100 µM (inactive)
same,GI50,[37],> 100 µM (inactive)
same,GI50,[38],> 100 µM (inactive)
same,GI50,[39],> 100 µM (inactive)
same,GI50,[40],> 100 µM (inactive)
same,GI50,[41],> 100 µM (inactive)
same,GI50,[42],> 100 µM (inactive)
same,GI50,[43],> 100 µM (inactive)
same,GI50,[44],56.9 µM (inactive)
same,GI50,[45],> 100 µM (inactive)
same,GI50,[46],35.6 µM (inactive)
same,GI50,[47],> 100 µM (inactive)
same,GI50,[48],> 100 µM (inactive)
same,GI50,[49],> 100 µM (inactive)
same,GI50,[50],7.45 µM (inactive)
same,GI50,[51],> 100 µM (inactive)
same,GI50,[52],> 100 µM (inactive)
Fc1ccc(C2SCc3nc4ccccc4n32)cc1F (centres undefined),GI50,[1],55.3 µM (inactive)
same,GI50,[2],36.2 µM (inactive)
same,GI50,[3],33.6 µM (inactive)
same,GI50,[4],30 µM (inactive)
same,GI50,[53],43.1 µM (inactive)
same,GI50,[5],34.1 µM (inactive)
same,GI50,[6],27.6 µM (inactive)
same,GI50,[7],34.2 µM (inactive)
same,GI50,[8],18.1 µM (inactive)
same,GI50,[9],26.5 µM (inactive)
same,GI50,[10],39.2 µM (inactive)
same,GI50,[54],37.6 µM (inactive)
same,GI50,[11],26.8 µM (inactive)
same,GI50,[12],35.7 µM
same,GI50,[55],7.8 µM (inactive)
same,GI50,[13],60.4 µM (inactive)
same,GI50,[56],35.8 µM (inactive)
same,GI50,[15],33.5 µM (inactive)
same,GI50,[16],24.2 µM (inactive)
same,GI50,[17],55.5 µM (inactive)
same,GI50,[18],27.6 µM (inactive)
same,GI50,[20],23.4 µM (inactive)
same,GI50,[57],25.7 µM (inactive)
same,GI50,[21],28.6 µM (inactive)
same,GI50,[22],21.4 µM (inactive)
same,GI50,[23],25.9 µM (inactive)
same,GI50,[25],21.1 µM (inactive)
same,GI50,[26],37.4 µM (inactive)
same,GI50,[27],18.3 µM (inactive)
same,GI50,[28],26.9 µM (inactive)
same,GI50,[29],18.2 µM (inactive)
same,GI50,[31],33.8 µM (inactive)
same,GI50,[32],13.3 µM (inactive)
same,GI50,[33],24.2 µM (inactive)
same,GI50,[34],28.8 µM (inactive)
same,GI50,[35],50.4 µM (inactive)
same,GI50,[36],40.5 µM (inactive)
same,GI50,[37],34 µM (inactive)
same,GI50,[38],23.4 µM (inactive)
same,GI50,[39],23.8 µM (inactive)
same,GI50,[40],16.8 µM (inactive)
same,GI50,[41],46.5 µM (inactive)
same,GI50,[42],41.7 µM (inactive)
same,GI50,[43],29.6 µM (inactive)
same,GI50,[44],20.1 µM (inactive)
same,GI50,[45],32.2 µM (inactive)
same,GI50,[46],39.4 µM (inactive)
same,GI50,[47],26 µM (inactive)
same,GI50,[48],48.2 µM (inactive)
same,GI50,[49],42.1 µM (inactive)
same,GI50,[50],20.7 µM (inactive)
same,GI50,[51],13.6 µM (inactive)
same,GI50,[52],25.4 µM (inactive)
COC(=O)CCC(NC(=S)N/N=C(\C)c1ccco1)C(=O)OC (centres undefined),GI50,[1],> 100 µM (inactive)
same,GI50,[2],> 100 µM (inactive)
same,GI50,[3],> 100 µM (inactive)
same,GI50,[4],> 100 µM (inactive)
same,GI50,[5],> 100 µM (inactive)
same,GI50,[6],> 100 µM (inactive)
same,GI50,[7],> 100 µM (inactive)
same,GI50,[8],> 100 µM (inactive)
same,GI50,[9],> 100 µM (inactive)
same,GI50,[10],> 100 µM (inactive)
same,GI50,[54],> 100 µM (inactive)
same,GI50,[11],> 100 µM (inactive)
same,GI50,[12],> 100 µM
same,GI50,[55],> 100 µM (inactive)
same,GI50,[13],> 100 µM (inactive)
same,GI50,[56],> 100 µM (inactive)
same,GI50,[14],> 100 µM (inactive)
same,GI50,[15],> 100 µM (inactive)
same,GI50,[16],> 100 µM (inactive)
same,GI50,[17],> 100 µM (inactive)
same,GI50,[18],> 100 µM (inactive)
same,GI50,[19],> 100 µM (inactive)
same,GI50,[20],> 100 µM (inactive)
same,GI50,[57],> 100 µM (inactive)
same,GI50,[21],> 100 µM (inactive)
same,GI50,[23],> 100 µM (inactive)
same,GI50,[24],> 100 µM (inactive)
same,GI50,[25],> 100 µM (inactive)
same,GI50,[26],> 100 µM (inactive)
same,GI50,[27],> 100 µM (inactive)
same,GI50,[28],> 100 µM (inactive)
same,GI50,[29],> 100 µM (inactive)
same,GI50,[30],> 100 µM (inactive)
same,GI50,[31],> 100 µM (inactive)
same,GI50,[33],> 100 µM (inactive)
same,GI50,[34],> 100 µM (inactive)
same,GI50,[35],> 100 µM (inactive)
same,GI50,[36],> 100 µM (inactive)
same,GI50,[37],> 100 µM (inactive)
same,GI50,[38],> 100 µM (inactive)
same,GI50,[39],> 100 µM (inactive)
same,GI50,[40],> 100 µM (inactive)
same,GI50,[41],> 100 µM (inactive)
same,GI50,[42],> 100 µM (inactive)
same,GI50,[43],> 100 µM (inactive)
same,GI50,[44],> 100 µM (inactive)
same,GI50,[45],> 100 µM (inactive)
same,GI50,[46],> 100 µM (inactive)
same,GI50,[47],> 100 µM (inactive)
same,GI50,[48],> 100 µM (inactive)
same,GI50,[49],> 100 µM (inactive)
same,GI50,[50],> 100 µM (inactive)
same,GI50,[51],> 100 µM (inactive)
same,GI50,[52],> 100 µM (inactive)
